These are literature values, as cited in US7612214B2, “Organic amine salts of glutamic acid derivatives and their application” (Ajinomoto Co., Inc., priority 2003, dated 2009).

Several values for one entry are separate records, joined by “and”; a condition that tells them apart may be missing. Identical values can stand only once.

The conditions of this data set: (2S,4S) isomer derived from the natural plant; literature report (Vleggaar et al.).

As for `N[C@@H](C[C@@](O)(Cc1c[nH]c2ccccc12)C(=O)O)C(=O)O` [(2S,4S) isomer, (2S,4S)-2-amino-4-carboxy-4-hydroxy-5-(3-indolyl)pentanoic acid], the degree of sweetness is 800 times of sucrose and 1400 times of sucrose.
